Results as given in US11753407B2, “Compounds for treating spinal muscular atrophy” (PTC Therapeutics, Inc., priority 2012, dated 2023).
Values belong to the molecule of their own block, whether it stands above or below them.

Assays:
[1] = tested on: SMN2 minigene mRNA (SMN2-A minigene) in HEK293H cells; experiment: SMN2 minigene mRNA splicing RT-qPCR assay in cultured cells; assay type: cell-based, human; conditions: Homo sapiens, HEK293-H; concentration increasing full length SMN2 mRNA 1.5-fold relative to vehicle-treated cells; HEK293H cells with SMN2-A minigene, 24 hours, 7-point concentration data; read-out: EC1.5x for production of full length SMN2 mRNA
How it was run: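 EC1.5× values derive from a 24 h treatment of SMN2-A minigene HEK293H cells and GAPDH-normalized RT-qPCR of exon 7-included minigene mRNA relative to vehicle-treated cells.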

[2] = tested on: Smn protein in SMA patient fibroblast cells (GM03813); experiment: Smn protein assay in cultured cells (SMN HTRF); assay type: cell-based, human; conditions: SMA patient fibroblast cells, 48 hours; for maximum fold (Fold) increase of Smn protein: 7-point concentration data, fold relative to vehicle control; for EC1.5x for Smn protein expression: 7-point concentration curve, SMN HTRF, concentration producing 1.5 times Smn protein vs DMSO vehicle control
How it was run: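 Cells were cultured 72 h, seeded at 5,000/well and dosed with seven concentrations (3.16-fold apart) for 48 h. HTRF on lysates, read at 665 and 620 nm, gave blank-corrected ΔF values relative to DMSO. Potency is reported as EC1.5×, efficacy as maximal fold Smn increase.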

SMILES: CCN1CCN(c2ccc3nc(-c4cccc(OC)c4)cc(=O)n3c2)CC1 [Compound 26, 7-(4-ethylpiperazin-1-yl)-2-(3-methoxyphenyl)-4H-pyrido[1,2-a]pyrimidin-4-one]
EC (1.5-fold increase) [1]: 3 to 30 µM
melting point: 158 to 160 °C
maximum fold (Fold) increase of Smn protein [2]: ** (a fold increase between >1.2 and ≤1.35 is indicated by two stars (**))

SMILES: COc1cccc(-c2cc(=O)n3cc(N4CCCN(C)CC4)ccc3n2)c1 [Compound 28, 2-(3-methoxyphenyl)-7-(4-methyl-1,4-diazepan-1-yl)-4H-pyrido[1,2-a]pyrimidin-4-one]
EC (1.5-fold increase) [1]: 3 to 30 µM
melting point: 130 to 132 °C
maximum fold (Fold) increase of Smn protein [2]: ** (a fold increase between >1.2 and ≤1.35 is indicated by two stars (**))

SMILES: COc1ccc(-c2cc(=O)n3cc(N4CCN[C@@H](C)C4)ccc3n2)cc1OC [Compound 30, 2-(3,4-dimethoxyphenyl)-7-[(3S)-3-methylpiperazin-1-yl]-4H-pyrido[1,2-a]pyrimidin-4-one]
EC (1.5-fold increase) [1]: < 0.1 µM
melting point: 153 to 158 °C
EC1.5x for Smn protein expression [2]: ** (an EC1.5× between >1 μM and ≤3 μM is indicated by two stars (**))
maximum fold (Fold) increase of Smn protein [2]: **** (a fold increase between >1.5 and ≤1.65 is indicated by four stars (****))

SMILES: O=c1cc(-c2ccc3c(c2)OCCO3)nc2ccc(N3CCNCC3)cn12 [Compound 31, 2-(2,3-dihydro-1,4-benzodioxin-6-yl)-7-(piperazin-1-yl)-4H-pyrido[1,2-a]pyrimidin-4-one]
EC (1.5-fold increase) [1]: 1 to 3 µM
melting point: 230 to 232 °C
maximum fold (Fold) increase of Smn protein [2]: * (A maximum fold increase of ≤1.2 is indicated by one star (*))

SMILES: C[C@H]1CN(c2ccc3nc(-c4ccc5c(c4)OCCO5)cc(=O)n3c2)CCN1 [Compound 32, 2-(2,3-dihydro-1,4-benzodioxin-6-yl)-7-[(3S)-3-methylpiperazin-1-yl]-4H-pyrido[1,2-a]pyrimidin-4-one]
EC (1.5-fold increase) [1]: 1 to 3 µM
melting point: 205 to 207 °C
maximum fold (Fold) increase of Smn protein [2]: * (A maximum fold increase of ≤1.2 is indicated by one star (*))

SMILES: O=c1cc(-c2ccccc2)nc2ccc(N3CCNCC3)cn12 [Compound 33, 2-phenyl-7-(piperazin-1-yl)-4H-pyrido[1,2-a]pyrimidin-4-one]
EC (1.5-fold increase) [1]: 1 to 3 µM
melting point: 151 to 153 °C
maximum fold (Fold) increase of Smn protein [2]: * (A maximum fold increase of ≤1.2 is indicated by one star (*))

SMILES: C[C@H]1CN(c2ccc3nc(-c4ccccc4)cc(=O)n3c2)CCN1 [Compound 34, 7-[(3S)-3-methylpiperazin-1-yl]-2-phenyl-4H-pyrido[1,2-a]pyrimidin-4-one]
EC (1.5-fold increase) [1]: 1 to 3 µM
melting point: 170 to 173 °C
maximum fold (Fold) increase of Smn protein [2]: ** (a fold increase between >1.2 and ≤1.35 is indicated by two stars (**))

SMILES: C[C@@H]1CN(c2ccc3nc(-c4ccc5c(c4)OCCO5)cc(=O)n3c2)CCN1 [Compound 35, 2-(2,3-dihydro-1,4-benzodioxin-6-yl)-7-[(3R)-3-methylpiperazin-1-yl]-4H-pyrido[1,2-a]pyrimidin-4-one]
EC (1.5-fold increase) [1]: 3 to 30 µM
melting point: 212 to 214 °C
maximum fold (Fold) increase of Smn protein [2]: * (A maximum fold increase of ≤1.2 is indicated by one star (*))

SMILES: CC1(C)CN(c2ccc3nc(-c4ccc5c(c4)OCCO5)cc(=O)n3c2)CCN1 [Compound 36, 2-(2,3-dihydro-1,4-benzodioxin-6-yl)-7-(3,3-dimethylpiperazin-1-yl)-4H-pyrido[1,2-a]pyrimidin-4-one]
EC (1.5-fold increase) [1]: 3 to 30 µM
melting point: 196 to 198 °C
maximum fold (Fold) increase of Smn protein [2]: * (A maximum fold increase of ≤1.2 is indicated by one star (*))

SMILES: C[C@@H]1CN(c2ccc3nc(-c4ccc5c(c4)OCCO5)cc(=O)n3c2)C[C@H](C)N1 [Compound 37, 2-(2,3-dihydro-1,4-benzodioxin-6-yl)-7-[(3R,5S)-3,5-dimethylpiperazin-1-yl]-4H-pyrido[1,2-a]pyrimidin-4-one]
EC (1.5-fold increase) [1]: 1 to 3 µM
melting point: 247 to 250 °C
maximum fold (Fold) increase of Smn protein [2]: * (A maximum fold increase of ≤1.2 is indicated by one star (*))

SMILES: O=c1cc(-c2ccc3c(c2)OCCO3)nc2ccc(N3CCCNCC3)cn12 [Compound 38, 7-(1,4-diazepan-1-yl)-2-(2,3-dihydro-1,4-benzodioxin-6-yl)-4H-pyrido[1,2-a]pyrimidin-4-one]
EC (1.5-fold increase) [1]: 3 to 30 µM
melting point: 180 to 182 °C
maximum fold (Fold) increase of Smn protein [2]: * (A maximum fold increase of ≤1.2 is indicated by one star (*))

SMILES: CN1CCCN(c2ccc3nc(-c4ccc5c(c4)OCCO5)cc(=O)n3c2)CC1 [Compound 39, 2-(2,3-dihydro-1,4-benzodioxin-6-yl)-7-(4-methyl-1,4-diazepan-1-yl)-4H-pyrido[1,2-a]pyrimidin-4-one]
EC (1.5-fold increase) [1]: 3 to 30 µM
melting point: 150 to 152 °C
maximum fold (Fold) increase of Smn protein [2]: * (A maximum fold increase of ≤1.2 is indicated by one star (*))

Second part, led by results:

melting point: 183 to 185 °C
SMILES: COc1ccc(-c2cc(=O)n3cc(N4CCN(C)CC4)cc(F)c3n2)cc1OC [Compound 40, 2-(3,4-dimethoxyphenyl)-9-fluoro-7-(4-methylpiperazin-1-yl)-4H-pyrido[1,2-a]pyrimidin-4-one]
EC (1.5-fold increase) [1]: 3 to 30 µM
maximum fold (Fold) increase of Smn protein [2]: * (A maximum fold increase of ≤1.2 is indicated by one star (*))

melting point: 185 to 189 °C
SMILES: O=c1cc(-c2cccc(Cl)c2)nc2ccc(N3CCNCC3)cn12 [Compound 41, 2-(3-chlorophenyl)-7-(piperazin-1-yl)-4H-pyrido[1,2-a]pyrimidin-4-one]
EC (1.5-fold increase) [1]: 0.3 to 1 µM
maximum fold (Fold) increase of Smn protein [2]: *** (a fold increase between >1.35 and ≤1.5 is indicated by three stars (***))

melting point: 207 to 212 °C
SMILES: O=c1cc(-c2ccc(Cl)cc2)nc2ccc(N3CCNCC3)cn12 [Compound 42, 2-(4-chlorophenyl)-7-(piperazin-1-yl)-4H-pyrido[1,2-a]pyrimidin-4-one]
EC (1.5-fold increase) [1]: 1 to 3 µM
maximum fold (Fold) increase of Smn protein [2]: * (A maximum fold increase of ≤1.2 is indicated by one star (*))

melting point: 199 to 207 °C
SMILES: O=c1cc(-c2cccc(C(F)(F)F)c2)nc2ccc(N3CCNCC3)cn12 [Compound 43, 7-(piperazin-1-yl)-2-[3-(trifluoromethyl)phenyl]-4H-pyrido[1,2-a]pyrimidin-4-one]
EC (1.5-fold increase) [1]: 0.1 to 0.3 µM
EC1.5x for Smn protein expression [2]: ** (an EC1.5× between >1 μM and ≤3 μM is indicated by two stars (**))
maximum fold (Fold) increase of Smn protein [2]: *** (a fold increase between >1.35 and ≤1.5 is indicated by three stars (***))

melting point: 285 °C (dec.)
SMILES: O=c1cc(-c2ccc(C(F)(F)F)cc2)nc2ccc(N3CCNCC3)cn12 [Compound 44, 7-(piperazin-1-yl)-2-[4-(trifluoromethyl)phenyl]-4H-pyrido[1,2-a]pyrimidin-4-one]
EC (1.5-fold increase) [1]: 1 to 3 µM
maximum fold (Fold) increase of Smn protein [2]: * (A maximum fold increase of ≤1.2 is indicated by one star (*))

melting point: 183 to 187 °C
SMILES: Cc1cccc(-c2cc(=O)n3cc(N4CCNCC4)ccc3n2)c1 [Compound 45, 2-(3-methylphenyl)-7-(piperazin-1-yl)-4H-pyrido[1,2-a]pyrimidin-4-one]
EC (1.5-fold increase) [1]: 3 to 30 µM
maximum fold (Fold) increase of Smn protein [2]: ** (a fold increase between >1.2 and ≤1.35 is indicated by two stars (**))

melting point: 214 to 218 °C
SMILES: O=c1cc(-c2ccc(F)cc2)nc2ccc(N3CCNCC3)cn12 [Compound 46, 2-(4-fluorophenyl)-7-(piperazin-1-yl)-4H-pyrido[1,2-a]pyrimidin-4-one]
EC (1.5-fold increase) [1]: 1 to 3 µM
maximum fold (Fold) increase of Smn protein [2]: *** (a fold increase between >1.35 and ≤1.5 is indicated by three stars (***))

melting point: 237 to 242 °C
SMILES: O=c1cc(-c2ccc([N+](=O)[O-])cc2)nc2ccc(N3CCNCC3)cn12 [Compound 47, 2-(4-nitrophenyl)-7-(piperazin-1-yl)-4H-pyrido[1,2-a]pyrimidin-4-one]
EC (1.5-fold increase) [1]: 1 to 3 µM
maximum fold (Fold) increase of Smn protein [2]: *** (a fold increase between >1.35 and ≤1.5 is indicated by three stars (***))

melting point: 224 to 226 °C
SMILES: COc1ccc(-c2cc(=O)n3cc(NC4CCNCC4)cc(F)c3n2)cc1OC [Compound 48, 2-(3,4-dimethoxyphenyl)-9-fluoro-7-(piperidin-4-ylamino)-4H-pyrido[1,2-a]pyrimidin-4-one]
EC (1.5-fold increase) [1]: 3 to 30 µM
maximum fold (Fold) increase of Smn protein [2]: * (A maximum fold increase of ≤1.2 is indicated by one star (*))

melting point: 216 to 218 °C
SMILES: CN(C)c1ccc(-c2cc(=O)n3cc(N4CCNCC4)cc(F)c3n2)cc1 [Compound 49, 2-[4-(dimethylamino)phenyl]-9-fluoro-7-(piperazin-1-yl)-4H-pyrido[1,2-a]pyrimidin-4-one]
EC (1.5-fold increase) [1]: 3 to 30 µM
maximum fold (Fold) increase of Smn protein [2]: * (A maximum fold increase of ≤1.2 is indicated by one star (*))

melting point: 205 to 207 °C
SMILES: C[C@@H]1CN(c2cc(F)c3nc(-c4ccc(N(C)C)cc4)cc(=O)n3c2)CCN1 [Compound 50, 2-[4-(dimethylamino)phenyl]-9-fluoro-7-[(3R)-3-methylpiperazin-1-yl]-4H-pyrido[1,2-a]pyrimidin-4-one]
EC (1.5-fold increase) [1]: 3 to 30 µM
maximum fold (Fold) increase of Smn protein [2]: ** (a fold increase between >1.2 and ≤1.35 is indicated by two stars (**))
